PMC5344293, “A phase 1 dose-escalation and expansion study of binimetinib (MEK162), a potent and selective oral MEK1/2 inhibitor” (British Journal of Cancer, 2017)
Several values for one entry are separate records, joined by “and”; a condition that tells them apart may be missing. Identical values can stand only once. Entries after “also recorded” stand apart in the source; their conditions may differ. Like-named read-outs stand apart in the source and are kept apart here.

Tests used:
[1] = Plasma pharmacokinetics in patients; type: in vivo, human; conditions: for RAUC (accumulation ratio) / Cmax / AUC(0-t): geometric mean (% CV); for Cmax / AUC(0-t) / Tmax: human, plasma, oral
Procedure: Blood for plasma binimetinib and metabolite concentration assessments was collected on cycle 1 day 1 (pre-dose and 30 min to 24 h post dose), cycle 1 day 15 (pre-dose and 30 min to 8 h post dose), and cycles 2 to 8 day 1 (pre-dose) from patients in the dose-escalation phase and from selected patients in the biliary cancer cohort of the expansion phase (intensive pharmacokinetic sampling). The remaining patients in the expansion phase underwent limited pharmacokinetic sampling on cycle 1 day 1 (pre-dose), cycle 1 day 8 (pre-dose), cycle 1 day 15 (pre-dose and 30 min to 8 h post dose), cycle 2 day 1 (pre-dose), cycle 3 day 1 (pre-dose and 30 min to 8 h post dose), and cycles 4–8 day 1 (pre-dose). Standard non-compartmental pharmacokinetic parameters were calculated on serial pharmacokinetic collection days (cycle 1 day 1 and cycle 1 day 15 for the dose-escalation phase; cycle 1 day 15 and cycle 3 day 1 for the expansion phase) for each patient and summarised by cohort. Dose proportionality, accumulation, and metabolite-to-parent ratio were assessed as appropriate.

Ki67 = experiment: Skin punch biopsy Ki67 immunohistochemistry; type: in vivo, human; conditions: cycle 1 day 15
Procedure: Skin punch biopsies (with hair follicles, if feasible) were obtained from patients in the dose-escalation phase and colorectal cancer expansion phase cohorts pre-dose at baseline and post dose within 7 days of cycle 1 day 15 for measurement of Ki67 and pERK expression. Ki67 and pERK expression were determined by immunohistochemistry using a Ki67 rabbit monoclonal antibody (clone 30-9; Ventana Medical Systems, Inc., Tucson, AZ, USA) and a pERK rabbit monoclonal antibody (Thr202/Tyr204, clone 20G11; Cell Signaling Technology, Inc., Danvers, MA), respectively, visualised with DAB and counterstained with haematoxylin. Ki67 was expressed as percentage of tumour cells with positive stain; pERK was expressed as an H-score.

pMEK = experiment: Skin punch biopsy pMEK expression; type: in vivo, human; conditions: pre-dose and post-dose skin punch biopsies
advanced solid tumours = experiment: Tumour response, RECIST version 1.1; type: in vivo, human
Procedure: Efficacy was assessed through radiologic scans and clinical measurements of disease sites (if applicable), and evaluation of serologic tumour markers in patient blood samples as appropriate for tumour type. Tumour assessments were performed within 21 days before the first dose and then every 6 weeks starting at the end of cycle 2. Tumour response was evaluated by the investigator using Response Evaluation Criteria in Solid Tumours (RECIST) version 1.1 criteria. Tumour marker levels were incorporated into the overall response assessment per RECIST.
All patients who received ⩾1 dose of binimetinib were included in the safety analysis. Patients in the safety analysis who had ⩾1 measurable lesion at baseline and at least 1 post-baseline disease assessment were evaluable for efficacy. Kaplan–Meier estimates of progression-free survival (PFS) and overall survival (OS) were performed for patients in the expansion phase ([Kaplan and Meier, 1958]) using SAS Version 9.2 (SAS Institute Inc., Cary, NC, USA).

purified MEK enzyme = molecular target: purified MEK enzyme; design: method as in Lee et al, 2010; Woessner et al, 2010; conditions: ref Lee et al, 2010, Woessner et al, read-out: half-maximal inhibitory concentration; cited from earlier work
ERK phosphorylation = test system: ERK phosphorylation; design: method as in Lee et al, 2010; conditions: human cell lines; ref Lee et al, 2010; cited from earlier work
human cancer cell lines = test system: human cancer cell lines; design: method as in Lee et al, 2010; conditions: subset of cells; particularly active with activating BRAF, NRAS, KRAS mutations; ref Lee et al, 2010; cited from earlier work
[2] = design: method as in Watanabe et al, 2016; conditions: BID; Japanese patients with advanced solid tumours; ref Watanabe et al, 2016; cited from earlier work
NRAS-mutant melanoma [3] = test system: NRAS-mutant melanoma; design: method as in Ascierto et al, 2013; Van Herpen et al, 2015; conditions: patients with advanced NRAS-mutant melanoma; ref Ascierto et al, 2013; Van Herpen et al, 2015; cited from earlier work
NRAS-mutant melanoma [4] = test system: NRAS-mutant melanoma; design: method as in Dummer et al, 2016; conditions: patients with NRAS-mutant melanoma; ref Dummer et al, 2016; cited from earlier work

## Cn1cnc2c(F)c(Nc3ccc(Br)cc3F)c(C(=O)NOCCO)cc21 [binimetinib]
[1]; cycle 1 day 15, Total (N=26)
  RAUC (accumulation ratio): 1.44 (32.8)
[1]; cycle 1 day 15, expansion Biliary 60 mg BID (n=7)
  RAUC (accumulation ratio): 2.50 (NC)
[1]; 30 mg BID, cycle 1 day 1, dose-escalation 30 mg BID (n=4)
  Cmax: 327 ng/mL
[1]; 30 mg BID, cycle 1 day 1, dose-escalation 30 mg BID (n=4), intensive sampling, read-out: AUC0–8
  AUC(0-t): 1000 ng·h/mL
[1]; 30 mg BID, cycle 1 day 1, dose-escalation 30 mg BID (n=4), median (minimum–maximum), read-out: tmax
  Tmax: 1.51 h
[1]; 30 mg BID, cycle 1 day 15, dose-escalation 30 mg BID (n=4), median (minimum–maximum), read-out: tmax
  Tmax: 1.5 h
[1]; 30 mg, cycle 1 day 15, dose-escalation 30 mg BID (n=4)
  Cmax: 417 ng/mL
[1]; 45 mg BID, cycle 1 day 1, dose-escalation 45 mg BID (n=4)
  Cmax: 241 ng/mL
[1]; 45 mg BID, cycle 1 day 1, dose-escalation 45 mg BID (n=4), intensive sampling, read-out: AUC0–8
  AUC(0-t): 964 ng·h/mL
[1]; 45 mg BID, cycle 1 day 1, dose-escalation 45 mg BID (n=4), median (minimum–maximum), read-out: tmax
  Tmax: 2.53 h
[1]; 45 mg BID, cycle 1 day 15, dose-escalation 45 mg BID (n=4), median (minimum–maximum), read-out: tmax
  Tmax: 2 h
[1]; 45 mg, cycle 1 day 15, dose-escalation 45 mg BID (n=4)
  Cmax: 273 ng/mL
[1]; 45 mg, cycle 1 day 15, dose-escalation 45 mg BID (n=4), read-out: AUC0-8
  AUC(0-t): 1490 ng·h/mL
[1]; 60 mg BID, cycle 1 day 1, dose-escalation 60 mg BID (n=7)
  Cmax: 545 ng/mL
[1]; 60 mg BID, cycle 1 day 1, dose-escalation 60 mg BID (n=7), intensive sampling, read-out: AUC0–8
  AUC(0-t): 1710 ng·h/mL
[1]; 60 mg BID, cycle 1 day 1, dose-escalation 60 mg BID (n=7), median (minimum–maximum), read-out: tmax
  Tmax: 1 h
[1]; 60 mg BID, cycle 1 day 15, dose-escalation 60 mg BID (n=7), median (minimum–maximum), read-out: tmax
  Tmax: 3 h
[1]; 60 mg, cycle 1 day 1, expansion Biliary 60 mg BID (n=7)
  Cmax: 365 ng/mL
[1]; 60 mg, cycle 1 day 1, expansion Biliary 60 mg BID (n=7), intensive sampling, read-out: AUC0–8
  AUC(0-t): 1090 ng·h/mL
[1]; 60 mg, cycle 1 day 1, expansion Biliary 60 mg BID (n=7), median (minimum–maximum), read-out: tmax
  Tmax: 1.5 h
[1]; 60 mg, cycle 1 day 15, dose-escalation 60 mg BID (n=7)
  Cmax: 512 ng/mL
[1]; 60 mg, cycle 1 day 15, dose-escalation 60 mg BID (n=7), read-out: AUC0-8
  AUC(0-t): 1820 ng·h/mL
[1]; 60 mg, cycle 1 day 15, expansion Biliary 60 mg BID (n=7)
  Cmax: 594 ng/mL
[1]; 60 mg, cycle 1 day 15, expansion Biliary 60 mg BID (n=7), read-out: AUC0-8
  AUC(0-t): 3760 ng·h/mL
[1]; 60 mg, cycle 1 day 15, expansion Biliary 60 mg BID (n=7), median (minimum–maximum), read-out: tmax
  Tmax: 1.5 h
[1]; 80 mg BID, cycle 1 day 1, dose-escalation 80 mg BID (n=4)
  Cmax: 687 ng/mL
[1]; 80 mg BID, cycle 1 day 1, dose-escalation 80 mg BID (n=4), intensive sampling, read-out: AUC0–8
  AUC(0-t): 2220 ng·h/mL
[1]; 80 mg BID, cycle 1 day 1, dose-escalation 80 mg BID (n=4), median (minimum–maximum), read-out: tmax
  Tmax: 2.02 h
[1]; across all dose levels and both sampling schemes, read-out: tmax, median values
  Tmax: 0.5 to 4 h
[1]; cycle 1 day 1, Total (N=26), median (minimum–maximum), read-out: tmax
  Tmax: 1.5 h
[1]; cycle 1 day 15, Total (N=26), median (minimum–maximum), read-out: tmax
  Tmax: 1.5 h
[1]; intensive pharmacokinetic sampling
  Pre-dose concentrations on cycle 1 day 15 versus 12 h concentrations on day 1: up to threefold higher
[1]; limited sampling, 45 and 60 mg BID, no formal steady-state analysis
  Steady state: likely at steady state by cycle 1 day 15
[1]; over the dose range tested, days 1 and 15 of cycle 1
  Dose proportionality of exposure: Dose-proportional increases; also recorded: approximately dose proportional
Ki67; 30 mg BID (n=4)
  Skin expression of Ki67, median (range) percent of baseline: 44 (25–56) percent of baseline
Ki67; 45 mg BID (n=22)
  Skin expression of Ki67, median (range) percent of baseline: 33 (6–300) percent of baseline
Ki67; 60 mg BID (n=7)
  Skin expression of Ki67, median (range) percent of baseline: 31 (17–100) percent of baseline
Ki67; Total (N=33)
  Skin expression of Ki67, median (range) percent of baseline: 33 (6–300) percent of baseline
pMEK
  Change in skin pMEK relative to baseline: no notable changes
Advanced solid tumours
  Best response of stable disease, patients: 36%
Advanced solid tumours; 3 of 30 patients with biliary cancer
  Objective responses among patients with biliary cancer: 10%
Advanced solid tumours; KRAS- or BRAF-mutant cohorts
  Responses in patients with colorectal cancer: no responses
Advanced solid tumours; all in patients with biliary cancer
  Objective responses, number of patients: Three
Advanced solid tumours; biliary cancer
  Duration of complete response: 11.3 months
Advanced solid tumours; biliary cancer, two patients
  Duration of partial response: 10.2 months and 17.9 months
Advanced solid tumours; of 91 patients evaluable for response
  Objective responses: 3%
Advanced solid tumours; patients with biliary cancer
  Complete responses, number of patients: one
  Partial responses, number of patients: two
Advanced solid tumours; range, 0.92–11.53 months
  Median duration of stable disease: 3.94 months
Purified MEK enzyme
  IC50: 12 nM
ERK phosphorylation
  Inhibition of ERK phosphorylation: markedly inhibits
Human cancer cell lines
  Inhibition of proliferation: potently inhibits
[2]
  MTD/recommended phase 2 dose: 45 mg
NRAS-mutant melanoma [3]
  Response rate: 15%
NRAS-mutant melanoma [4]
  PFS vs dacarbazine: significantly longer PFS
